Here are results for 22 compounds from article PMC8812461, “Synthesis of New 3-Arylcoumarins Bearing N-Benzyl Triazole Moiety: Dual Lipoxygenase and Butyrylcholinesterase Inhibitors With Anti-Amyloid Aggregation and Neuroprotective Properties Against Alzheimer’s Disease” (Frontiers in Chemistry, 2022).

Common to all, as to type: biochemical
Test [1] addresses T1, 15-LOX (soybean lipoxygenase) (Glycine max, UniProt P08170).
T1 construct: purchased Merck or Aldrich
T1 sequence (P08170 1-839): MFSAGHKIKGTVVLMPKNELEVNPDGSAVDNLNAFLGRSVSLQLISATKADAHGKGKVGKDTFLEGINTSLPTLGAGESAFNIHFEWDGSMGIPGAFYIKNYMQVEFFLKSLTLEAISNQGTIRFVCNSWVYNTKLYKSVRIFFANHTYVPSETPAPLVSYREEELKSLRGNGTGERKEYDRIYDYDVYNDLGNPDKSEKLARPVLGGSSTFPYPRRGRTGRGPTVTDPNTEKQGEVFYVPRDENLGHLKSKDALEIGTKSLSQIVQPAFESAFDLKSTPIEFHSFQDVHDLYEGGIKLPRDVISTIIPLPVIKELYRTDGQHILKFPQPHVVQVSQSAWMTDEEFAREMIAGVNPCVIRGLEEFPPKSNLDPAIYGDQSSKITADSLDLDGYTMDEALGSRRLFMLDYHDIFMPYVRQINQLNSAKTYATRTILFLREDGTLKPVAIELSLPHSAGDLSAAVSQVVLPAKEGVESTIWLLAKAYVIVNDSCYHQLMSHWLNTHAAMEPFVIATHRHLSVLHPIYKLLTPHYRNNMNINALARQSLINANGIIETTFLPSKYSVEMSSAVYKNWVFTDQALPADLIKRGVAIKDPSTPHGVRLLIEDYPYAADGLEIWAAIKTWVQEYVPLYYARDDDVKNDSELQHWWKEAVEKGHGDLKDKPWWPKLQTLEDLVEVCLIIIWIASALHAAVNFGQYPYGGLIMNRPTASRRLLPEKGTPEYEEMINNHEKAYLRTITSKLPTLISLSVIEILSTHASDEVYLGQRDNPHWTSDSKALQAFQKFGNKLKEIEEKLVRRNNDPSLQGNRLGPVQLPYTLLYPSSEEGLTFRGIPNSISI
As to the kind of experiment: Soybean 15-LOX inhibition assay. As for the experimental part: A solution of the target compound was prepared in DMSO, and it was diluted with phosphate buffer (0.1 M, pH = 8.0).

The target of test [2] is T2, AChE (from electrophorus electricus) (Electrophorus electricus, UniProt O42275).
T2 construct: purchased Merck or Aldrich
T2 sequence (O42275 24-633): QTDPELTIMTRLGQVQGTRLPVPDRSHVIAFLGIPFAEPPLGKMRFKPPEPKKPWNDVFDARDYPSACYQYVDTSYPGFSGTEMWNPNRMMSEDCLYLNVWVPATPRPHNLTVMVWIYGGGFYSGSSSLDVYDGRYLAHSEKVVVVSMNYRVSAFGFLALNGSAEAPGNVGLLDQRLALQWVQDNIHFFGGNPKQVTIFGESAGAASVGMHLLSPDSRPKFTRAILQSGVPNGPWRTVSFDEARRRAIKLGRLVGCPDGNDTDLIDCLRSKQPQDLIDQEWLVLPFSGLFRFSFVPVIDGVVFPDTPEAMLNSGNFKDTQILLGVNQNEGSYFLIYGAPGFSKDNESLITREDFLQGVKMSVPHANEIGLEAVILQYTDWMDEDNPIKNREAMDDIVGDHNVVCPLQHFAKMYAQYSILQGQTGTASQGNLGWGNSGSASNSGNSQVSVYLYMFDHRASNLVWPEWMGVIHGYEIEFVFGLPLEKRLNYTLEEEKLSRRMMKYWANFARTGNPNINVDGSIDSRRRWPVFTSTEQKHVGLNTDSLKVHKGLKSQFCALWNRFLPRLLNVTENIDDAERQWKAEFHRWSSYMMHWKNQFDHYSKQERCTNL
As to the kind of experiment: Cholinesterase inhibition assay (Ellman's method), AChE. To be noted: test concentration not given. The protocol: (§1) AChE from electrophorus electricus and BuChE from equine serum was employed for Ellman’s assay. Each compound (5.0 mg) was dissolved in 1.0 ml of DMSO. […] Briefly, a mixture of phosphate buffer (2.0 ml, 0.1 M, pH = 8.0), 60.0 µl of DTNB solution, and 20.0 µl of AChE/BuChE was prepared, and 30.0 µl of the test compounds in different concentrations were then added to the mixture. Next, a solution of the substrate (acetylthiocholine iodide/butyrylthiocholine iodide, 20.0 µl) was added to the mixture after 10 min incubation at 25°C. All experiments were performed in triplicates, and the temperature of all solutions was controlled to be maintained at 25°C. […] The blank solution was used to validate the non-enzymatic hydrolysis of the substrate during the assessment. The blank solution was prepared by a mixture of 2.0 ml of buffer, 30.0 μl of DMSO, 60.0 μl of DTNB, and 20.0 μl of substrate. The rate of the enzymatic hydrolysis of the substrate was calculated, and % inhibition of the compounds was determined. The half maximal inhibitory concentration (IC50) values were graphically determined from inhibition curves (logarithm of the concentration of the tested compound versus percent of the inhibition).
(In general: DTNB colorimetry detects thiols as they appear.)

For test [3], the target named is T3, BuChE (from equine serum) (Equus caballus, UniProt P81908).
T3 construct: BuChE from equine serum was employed for Ellman’s assay; purchased Merck or Aldrich; host or cells: equine serum
T3 sequence (P81908 whole entry): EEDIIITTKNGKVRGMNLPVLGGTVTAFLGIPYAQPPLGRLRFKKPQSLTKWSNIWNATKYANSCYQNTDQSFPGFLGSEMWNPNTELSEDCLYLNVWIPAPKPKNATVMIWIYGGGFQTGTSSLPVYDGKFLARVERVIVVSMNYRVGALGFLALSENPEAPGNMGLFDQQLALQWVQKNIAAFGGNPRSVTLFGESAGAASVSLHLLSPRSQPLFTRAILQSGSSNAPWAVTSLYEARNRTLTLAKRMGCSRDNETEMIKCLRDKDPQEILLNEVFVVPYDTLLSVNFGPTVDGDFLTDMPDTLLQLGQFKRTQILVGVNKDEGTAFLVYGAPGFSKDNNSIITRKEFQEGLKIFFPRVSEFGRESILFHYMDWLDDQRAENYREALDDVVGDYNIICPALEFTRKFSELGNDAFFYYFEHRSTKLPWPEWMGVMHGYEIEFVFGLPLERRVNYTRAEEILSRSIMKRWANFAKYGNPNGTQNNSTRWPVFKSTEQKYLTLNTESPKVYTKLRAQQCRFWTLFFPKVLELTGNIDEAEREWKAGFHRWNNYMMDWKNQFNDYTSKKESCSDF
As to the kind of experiment: biochemical. The following applies: for eq BuChE %inhib.: test concentration not given; for IC50: mean ± SEM of three experiments, read-out: eq BuChE IC50. As for the experimental part: as §1

Another test concerns the target T4, Aβ1-42 (Homo sapiens, UniProt P05067).
T4 construct: was used to dissolve amyloid β1-40 (Sigma A1075); purchased Sigma A1075
Description: Self-induced Aβ1-42 aggregation (ThT assay). The following applies: Aβ1-42 10.0 μM, compound 100.0 μM, ThT.

Setting [4] is: soybean lipoxygenase, linoleic acid substrate, read-out: 15-LOX IC50.

Molecules are shown by their SMILES. Where two headings read alike, the source gives them in different places.

The IC50 is the concentration that inhibits the measured activity by half.

T4 sequence (P05067 672-711): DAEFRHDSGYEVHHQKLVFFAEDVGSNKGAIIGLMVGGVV

On to `Cc1cccc(Cn2cc(COc3ccc(-c4cc5ccccc5oc4=O)cc3)nn2)c1` [8k, 3-(4-((1-(3-Methylbenzyl)-1H-1,2,3-triazol-4-yl)methoxy)phenyl)-2H-chromen-2-one], for which the IC50 in test [1] (setting [4]) was 53.5 ± 1.5 µM. Moreover, the “ee AChE %inhib.” value in test [2] was 27.4%. In test [3], the “eq BuChE %inhib.” value came to 37.1%.

For the compound `COc1cccc2cc(-c3ccc(OCc4cn(Cc5ccc(F)cc5)nn4)cc3)c(=O)oc12` [8q, 3-(4-((1-(4-Fluorobenzyl)-1H-1,2,3-triazol-4-yl)methoxy)phenyl)-8-methoxy-2H-chromen-2-one], the half-inhibitory concentration (IC50) in test [1] was 35 ± 1.3 µM; in test [3], 18.9 ± 0.9 µM. In addition, in test [2], the “ee AChE %inhib.” value stood at 38.1%.

As for `O=c1oc2ccc([N+](=O)[O-])cc2cc1-c1ccc(OCc2cn(Cc3ccccc3F)nn2)cc1` [8w, 3-(4-((1-(2-Fluorobenzyl)-1H-1,2,3-triazol-4-yl)methoxy)phenyl)-6-nitro-2H-chromen-2-one], the IC50 in test [1] (setting [4]) was greater than 100 µM. The “ee AChE %inhib.” value in test [2] is reported as 16.6%. Also, the “eq BuChE %inhib.” value in test [3] worked out at 30.4%.

On to `O=c1oc2ccccc2cc1-c1ccc(OCc2cn(Cc3ccccc3[N+](=O)[O-])nn2)cc1` [8h, 3-(4-((1-(2-Nitrobenzyl)-1H-1,2,3-triazol-4-yl)methoxy)phenyl)-2H-chromen-2-one], for which, in test [1] (setting [4]), the IC50 was greater than 100 µM. For the same compound, in test [2], the “ee AChE %inhib.” value worked out at 20.8%.

Regarding `COc1cccc2cc(-c3ccc(OCc4cn(Cc5ccc(Cl)cc5)nn4)cc3)c(=O)oc12` [8r, 3-(4-((1-(4-Chlorobenzyl)-1H-1,2,3-triazol-4-yl)methoxy)phenyl)-8-methoxy-2H-chromen-2-one], the IC50 in test [1] was greater than 100 µM; in test [3], 6.7 ± 0.4 µM. Also, in test [2], the “ee AChE %inhib.” value is reported as 41.5%.

In the case of `COc1cc2c(cc1OC)C(=O)C(CC1CCN(Cc3ccccc3)CC1)C2` (centres unmarked) [Donepezil, donepezil, reference compound], the “Inhibition of self-induced Aβ1-42 aggregation” value at Aβ1-42 is on record as 42.5 ± 0.3%.

For the compound `O=c1oc2ccc([N+](=O)[O-])cc2cc1-c1ccc(OCc2cn(Cc3ccccc3)nn2)cc1` [8v, 3-(4-((1-Benzyl-1H-1,2,3-triazol-4-yl)methoxy)phenyl)-6-nitro-2H-chromen-2-one], the values for the 50% inhibitory concentration (IC50) in test [1] and in test [3] were greater than 100 µM and 6.3 ± 0.4 µM, respectively. Also, the “ee AChE %inhib.” value in test [2] is 48.3%.

Turning to `COc1cccc2cc(-c3ccc(OCc4cn(Cc5ccccc5[N+](=O)[O-])nn4)cc3)c(=O)oc12` [8s, 8-Methoxy-3-(4-((1-(2-nitrobenzyl)-1H-1,2,3-triazol-4-yl)methoxy)phenyl)-2H-chromen-2-one], in test [1] (setting [4]), the IC50 is greater than 100 µM. The “ee AChE %inhib.” value in test [2] is 27.4%. In addition, in test [3], the “eq BuChE %inhib.” value stood at 42.5%.

As to `COc1ccc(Cn2cc(COc3ccc(-c4cc5ccccc5oc4=O)cc3)nn2)cc1` [8m, 3-(4-((1-(4-Methoxybenzyl)-1H-1,2,3-triazol-4-yl)methoxy)phenyl)-2H-chromen-2-one], the IC50 in test [1] turned out to be 41 ± 1.4 µM. In addition, the “ee AChE %inhib.” value in test [2] stood at 26.6%. Further, the “eq BuChE %inhib.” value in test [3] worked out at 40.2%.

In test [1], `COc1cccc2cc(-c3ccc(OCc4cn(Cc5ccccc5F)nn4)cc3)c(=O)oc12` [8o, 3-(4-((1-(2-Fluorobenzyl)-1H-1,2,3-triazol-4-yl)methoxy)phenyl)-8-methoxy-2H-chromen-2-one] had a 50% inhibitory concentration (IC50) of 14.2 ± 0.4 µM. Besides, the “ee AChE %inhib.” value in test [2] is listed as 4.0%. The “eq BuChE %inhib.” value in test [3] is recorded as 8.0%.

`O=c1oc2ccccc2cc1-c1ccc(OCc2cn(Cc3ccccc3)nn2)cc1` [8a, 3-(4-((1-Benzyl-1H-1,2,3-triazol-4-yl)methoxy)phenyl)-2H-chromen-2-one]: the half-maximal inhibitory concentration (IC50) in test [1] was determined as 36.2 ± 1.5 µM; in test [3], 27.6 ± 1.3 µM. In test [2], the “ee AChE %inhib.” value worked out at 23.6%.

Take `COc1cccc2cc(-c3ccc(OCc4cn(Cc5cccc(F)c5)nn4)cc3)c(=O)oc12` [8p, 3-(4-((1-(3-Fluorobenzyl)-1H-1,2,3-triazol-4-yl)methoxy)phenyl)-8-methoxy-2H-chromen-2-one]: the IC50 in test [1] was 22.6 ± 0.8 µM. Besides, the “ee AChE %inhib.” value in test [2] came out at 29.8%. The “eq BuChE %inhib.” value in test [3] came out at 41.7%.

On to `O=c1oc2ccccc2cc1-c1ccc(OCc2cn(Cc3cccc([N+](=O)[O-])c3)nn2)cc1` [8i, 3-(4-((1-(3-Nitrobenzyl)-1H-1,2,3-triazol-4-yl)methoxy)phenyl)-2H-chromen-2-one], for which the IC50 in test [1] (setting [4]) was greater than 100 µM. Moreover, in test [2], the “ee AChE %inhib.” value amounted to 49.9%.

Take `O=c1oc2ccc(Br)cc2cc1-c1ccc(OCc2cn(Cc3ccc(Br)cc3)nn2)cc1` [8t, 6-Bromo-3-(4-((1-(4-bromobenzyl)-1H-1,2,3-triazol-4-yl)methoxy)phenyl)-2H-chromen-2-one]: the 50% inhibitory concentration (IC50) in test [1] (setting [4]) is greater than 100 µM. Moreover, the “ee AChE %inhib.” value in test [2] was found to be 15.1%.

`O=c1oc2ccccc2cc1-c1ccc(OCc2cn(Cc3ccc(Br)cc3)nn2)cc1` [8g, 3-(4-((1-(4-Bromobenzyl)-1H-1,2,3-triazol-4-yl)methoxy)phenyl)-2H-chromen-2-one]: in test [1] (setting [4]), the IC50 was greater than 100 µM. Besides, the “ee AChE %inhib.” value in test [2] was found to be 35.5%. Moreover, the “eq BuChE %inhib.” value in test [3] turned out to be 46.7%.

For the compound `O=c1oc2ccccc2cc1-c1ccc(OCc2cn(Cc3ccccc3F)nn2)cc1` [8b, 3-(4-((1-(2-Fluorobenzyl)-1H-1,2,3-triazol-4-yl)methoxy)phenyl)-2H-chromen-2-one], the figures for the IC50 in test [1] and in test [3] were 16.5 ± 0.7 µM and 36.5 ± 1.1 µM, respectively. For the same compound, the “ee AChE %inhib.” value in test [2] is 11.2%.

Turning to `O=c1oc2ccccc2cc1-c1ccc(OCc2cn(Cc3ccc(Cl)cc3)nn2)cc1` [8f, 3-(4-((1-(4-Chlorobenzyl)-1H-1,2,3-triazol-4-yl)methoxy)phenyl)-2H-chromen-2-one], the half-maximal inhibitory concentration (IC50) in test [1] (setting [4]) was greater than 100 µM. Besides, the “ee AChE %inhib.” value in test [2] was 41.4%. Further, in test [3], the “eq BuChE %inhib.” value stood at 23.6%.

Consider `O=c1oc2ccccc2cc1-c1ccc(OCc2cn(Cc3ccc(F)cc3)nn2)cc1` [8d, 3-(4-((1-(4-Fluorobenzyl)-1H-1,2,3-triazol-4-yl)methoxy)phenyl)-2H-chromen-2-one], for which, in test [1], the 50% inhibitory concentration (IC50) was determined as 45.2 ± 1.5 µM. Besides, in test [2], the “ee AChE %inhib.” value was determined as 32.4%. The “eq BuChE %inhib.” value in test [3] is 12.7%.

For the compound `O=c1oc2ccc(Br)cc2cc1-c1ccc(OCc2cn(Cc3ccccc3F)nn2)cc1` [8u, 6-Bromo-3-(4-((1-(2-fluorobenzyl)-1H-1,2,3-triazol-4-yl)methoxy)phenyl)-2H-chromen-2-one], the IC50 in test [1] (setting [4]) was found to be 61.5 ± 1.9 µM. Further, in test [2], the “ee AChE %inhib.” value stood at 45.1%. For the same compound, the “eq BuChE %inhib.” value in test [3] is 46.6%.

For the compound `O=c1oc2ccccc2cc1-c1ccc(OCc2cn(Cc3ccc([N+](=O)[O-])cc3)nn2)cc1` [8j, 3-(4-((1-(4-Nitrobenzyl)-1H-1,2,3-triazol-4-yl)methoxy)phenyl)-2H-chromen-2-one], in test [1] (setting [4]), the IC50 is greater than 100 µM. Besides, in test [2], the “ee AChE %inhib.” value turned out to be 14.7%.

In the case of `O=c1oc2ccccc2cc1-c1ccc(OCc2cn(Cc3ccccc3Cl)nn2)cc1` [8e, 3-(4-((1-(2-Chlorobenzyl)-1H-1,2,3-triazol-4-yl)methoxy)phenyl)-2H-chromen-2-one], the IC50 in test [1] (setting [4]) is greater than 100 µM. Further, the “ee AChE %inhib.” value in test [2] was 37.3%.

`O=c1oc2ccccc2cc1-c1ccc(OCc2cn(Cc3cccc(F)c3)nn2)cc1` [8c, 3-(4-((1-(3-Fluorobenzyl)-1H-1,2,3-triazol-4-yl)methoxy)phenyl)-2H-chromen-2-one] had a concentration for half-maximal inhibition (IC50) in test [1] of 28.3 ± 1.4 µM. In addition, in test [2], the “ee AChE %inhib.” value is recorded as 15.3%. Moreover, the “eq BuChE %inhib.” value in test [3] came to 48.9%.
